In PubChem BioAssay (NCI):
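Five compound concentrations were applied to cells in 96-well plates for 48 hours; endpoints were derived by simple linear interpolation of the resulting dose-response curve. TGI: total growth inhibition.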

Assays:
Test in all cases: growth of human tumour cells (NCI), 48 h
RXF 393 renal = tested on: RXF 393 renal
DMS 273 small cell lung = tested on: DMS 273 small cell lung
SF-539 CNS = tested on: SF-539 CNS
TK-10 renal = tested on: TK-10 renal
MALME-3M melanoma = tested on: MALME-3M melanoma
U251 CNS = tested on: U251 CNS
SK-MEL-5 melanoma = tested on: SK-MEL-5 melanoma
SF-268 CNS = tested on: SF-268 CNS
IGROV1 ovarian = tested on: IGROV1 ovarian
SR leukemia = tested on: SR leukemia
M19-MEL melanoma = tested on: M19-MEL melanoma
CAKI-1 renal = tested on: CAKI-1 renal
HOP-92 NSCLC = tested on: HOP-92 NSCLC
XF 498 CNS = tested on: XF 498 CNS
HCC-2998 colon = tested on: HCC-2998 colon
HOP-62 NSCLC = tested on: HOP-62 NSCLC
COLO 205 colon = tested on: COLO 205 colon
UO-31 renal = tested on: UO-31 renal
SN12C renal = tested on: SN12C renal
LOX IMVI melanoma = tested on: LOX IMVI melanoma
HCT-15 colon = tested on: HCT-15 colon
HT29 colon = tested on: HT29 colon
OVCAR-4 ovarian = tested on: OVCAR-4 ovarian
SF-295 CNS = tested on: SF-295 CNS
HCT-116 colon = tested on: HCT-116 colon
SNB-78 CNS = tested on: SNB-78 CNS
786-0 renal = tested on: 786-0 renal
K-562 leukemia = tested on: K-562 leukemia
NCI-H522 lung = tested on: NCI-H522 lung
SW-620 colon = tested on: SW-620 colon
NCI-H226 lung = tested on: NCI-H226 lung
RPMI-8226 leukemia = tested on: RPMI-8226 leukemia
KM20L2 colon = tested on: KM20L2 colon
MOLT-4 leukemia = tested on: MOLT-4 leukemia
OVCAR-8 ovarian = tested on: OVCAR-8 ovarian
SK-MEL-28 melanoma = tested on: SK-MEL-28 melanoma
OVCAR-3 ovarian = tested on: OVCAR-3 ovarian
SK-MEL-2 melanoma = tested on: SK-MEL-2 melanoma
CCRF-CEM leukemia = tested on: CCRF-CEM leukemia
RXF-631 renal = tested on: RXF-631 renal
UACC-62 melanoma = tested on: UACC-62 melanoma
M14 melanoma = tested on: M14 melanoma
EKVX NSCLC = tested on: EKVX NSCLC
SNB-75 CNS = tested on: SNB-75 CNS
NCI-H23 lung = tested on: NCI-H23 lung
ACHN renal = tested on: ACHN renal
A549 NSCLC = tested on: A549 NSCLC
LXFL 529 NSCLC = tested on: LXFL 529 NSCLC
NCI-H460 lung = tested on: NCI-H460 lung
SNB-19 CNS = tested on: SNB-19 CNS
SK-OV-3 ovarian = tested on: SK-OV-3 ovarian
KM12 colon = tested on: KM12 colon
OVCAR-5 ovarian = tested on: OVCAR-5 ovarian
HOP-18 NSCLC = tested on: HOP-18 NSCLC
HL-60(TB) leukemia = tested on: HL-60(TB) leukemia
DLD-1 colon = tested on: DLD-1 colon
DMS 114 small cell lung = tested on: DMS 114 small cell lung
A498 renal = tested on: A498 renal
UACC-257 melanoma = tested on: UACC-257 melanoma

S=c1sc2cscc2s1
TGI (RXF 393 renal): 51.5 µM | TGI (DMS 273 small cell lung): > 100 µM | TGI (SF-539 CNS): 65.5 µM | TGI (TK-10 renal): 40.2 µM | TGI (MALME-3M melanoma): 30.6 µM | TGI (U251 CNS): > 100 µM | TGI (SK-MEL-5 melanoma): 70.6 µM | TGI (SF-268 CNS): 64.5 µM | TGI (IGROV1 ovarian): > 100 µM | TGI (SR leukemia): > 100 µM | TGI (M19-MEL melanoma): 34.3 µM | TGI (CAKI-1 renal): 31.4 µM | TGI (HOP-92 NSCLC): 70.3 µM | TGI (XF 498 CNS): 49.9 µM | TGI (HCC-2998 colon): 32.8 µM | TGI (HOP-62 NSCLC): 74.5 µM | TGI (COLO 205 colon): 40.9 µM | TGI (UO-31 renal): 35.6 µM | TGI (SN12C renal): > 100 µM | TGI (LOX IMVI melanoma): > 100 µM | TGI (HCT-15 colon): > 100 µM | TGI (HT29 colon): > 100 µM | TGI (OVCAR-4 ovarian): 33 µM | TGI (SF-295 CNS): > 100 µM | TGI (HCT-116 colon): 37.7 µM | TGI (SNB-78 CNS): > 100 µM | TGI (786-0 renal): 46.5 µM | TGI (K-562 leukemia): > 100 µM | TGI (NCI-H522 lung): 36.7 µM | TGI (SW-620 colon): 41.1 µM | TGI (NCI-H226 lung): 49.5 µM | TGI (RPMI-8226 leukemia): > 100 µM | TGI (KM20L2 colon): 66.5 µM | TGI (MOLT-4 leukemia): > 100 µM | TGI (OVCAR-8 ovarian): 45.9 µM | TGI (SK-MEL-28 melanoma): 41.1 µM | TGI (OVCAR-3 ovarian): 54.9 µM | TGI (SK-MEL-2 melanoma): > 100 µM | TGI (CCRF-CEM leukemia): 78 µM | TGI (RXF-631 renal): 61 µM | TGI (UACC-62 melanoma): 34 µM | TGI (M14 melanoma): 39.9 µM | TGI (EKVX NSCLC): 35.5 µM | TGI (SNB-75 CNS): 35.8 µM | TGI (NCI-H23 lung): 97.7 µM | TGI (ACHN renal): 42.5 µM | TGI (A549 NSCLC): 37.5 µM | TGI (LXFL 529 NSCLC): 38.6 µM | TGI (NCI-H460 lung): 53.8 µM | TGI (SNB-19 CNS): 46 µM | TGI (SK-OV-3 ovarian): 77.3 µM | TGI (KM12 colon): 33.3 µM | TGI (OVCAR-5 ovarian): > 100 µM | TGI (HOP-18 NSCLC): 67.2 µM | TGI (HL-60(TB) leukemia): 81.5 µM | TGI (DLD-1 colon): 50.6 µM | TGI (DMS 114 small cell lung): 45.2 µM | TGI (A498 renal): > 100 µM | TGI (UACC-257 melanoma): 44.7 µM
